According to ChEMBL document CHEMBL1201862, “PubChem BioAssay data set” (2004):
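Each compound was tested at five concentrations against cells in 96-well plates for 48 hours. GI50 = concentration required for 50% inhibition of growth.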 Calls of active or inactive are those of the source. No stated cut-off is given here; in the data, active = GI50 up to about 1.1 µM and inactive = higher.

Experiments:
Experiment in all cases: inhibition of tumour cell growth, NCI panel, 48 h
[1] = system: 786-0
[2] = system: ACHN
[3] = system: BT-549
[4] = system: COLO 205
[5] = system: EKVX
[6] = system: HCC 2998
[7] = system: LOX IMVI
[8] = system: M14
[9] = system: MCF7
[10] = system: MDA-MB-231
[11] = system: MDA-MB-435
[12] = system: NCI-H522
[13] = system: OVCAR-3
[14] = system: PC-3
[15] = system: SF-539
[16] = system: SK-MEL-28
[17] = system: SN12C
[18] = system: SNB-19
[19] = system: SR
[20] = system: UACC-62

SMILES	GI50 [1]	GI50 [2]	GI50 [3]	GI50 [4]	GI50 [5]	GI50 [6]	GI50 [7]	GI50 [8]	GI50 [9]	GI50 [10]	GI50 [11]	GI50 [12]	GI50 [13]	GI50 [14]	GI50 [15]	GI50 [16]	GI50 [17]	GI50 [18]	GI50 [19]	GI50 [20]
CCOC(=O)c1c(NS(=O)(=O)c2ccc(Br)cc2)sc2c1CCCC2	9.31 µM (inactive)	3.93 µM (inactive)	7.59 µM (inactive)	13 µM (inactive)	4.52 µM (inactive)	16.7 µM (inactive)	13.6 µM (inactive)	4.8 µM (inactive)	10.3 µM (inactive)	7.29 µM (inactive)	19.4 µM (inactive)	2.03 µM (inactive)	3.93 µM (inactive)	5.41 µM (inactive)	7.91 µM (inactive)	15.8 µM (inactive)	6.14 µM (inactive)	7.46 µM (inactive)	19.7 µM (inactive)	6.46 µM (inactive)
N[C@@H](CCC(=O)NC(Cc1ccccc1)C(=O)NCP(=O)(O)O)C(=O)O (some centres not stated)	> 100 µM (inactive)	> 100 µM (inactive)	61.8 µM (inactive)	> 100 µM (inactive)	> 100 µM (inactive)	> 100 µM (inactive)	> 100 µM (inactive)	–	> 100 µM (inactive)	> 100 µM (inactive)	> 100 µM (inactive)	> 100 µM (inactive)	> 100 µM (inactive)	> 100 µM (inactive)	> 100 µM (inactive)	> 100 µM (inactive)	> 100 µM (inactive)	> 100 µM (inactive)	> 100 µM (inactive)	> 100 µM (inactive)
Cc1cc(OCc2nnc3n2N=C(c2cc(F)c(Cl)cc2Cl)/C(=C/c2ccc(-c4ccc(Cl)cc4)o2)S3)ccc1Cl	> 50 µM (inactive)	> 50 µM (inactive)	> 50 µM (inactive)	10.4 µM (inactive)	16.3 µM (inactive)	19 µM (inactive)	31.6 µM (inactive)	> 50 µM (inactive)	20.5 µM (inactive)	12.9 µM (inactive)	19.3 µM (inactive)	28.8 µM (inactive)	30.5 µM (inactive)	14.6 µM (inactive)	–	24.5 µM (inactive)	31.3 µM (inactive)	> 50 µM (inactive)	22.9 µM (inactive)	18.2 µM (inactive)
COC(=O)/C(=N\NC(N)=O)C(C(=O)C(=O)Nc1ccccc1OC)c1nc2ccc([N+](=O)[O-])cc2nc1O (configuration not stated)	> 100 µM (inactive)	> 100 µM (inactive)	> 100 µM (inactive)	–	> 100 µM (inactive)	> 100 µM (inactive)	> 100 µM (inactive)	> 100 µM (inactive)	> 100 µM (inactive)	> 100 µM (inactive)	44.3 µM (inactive)	> 100 µM (inactive)	> 100 µM (inactive)	> 100 µM (inactive)	> 100 µM (inactive)	> 100 µM (inactive)	> 100 µM (inactive)	> 100 µM (inactive)	> 100 µM (inactive)	> 100 µM (inactive)
COc1ccc2c(C(=O)c3cn(CCN4CCOCC4)c4ccccc34)cccc2c1	> 20.8 µM (inactive)	> 96.4 µM (inactive)	> 95.5 µM (inactive)	58.9 µM (inactive)	> 48.2 µM (inactive)	41.7 µM (inactive)	22.3 µM (inactive)	> 31.1 µM (inactive)	5.01 µM (inactive)	> 100 µM (inactive)	8.26 µM (inactive)	6.65 µM (inactive)	13.6 µM (inactive)	30.8 µM (inactive)	> 80 µM (inactive)	> 62.4 µM (inactive)	> 71.4 µM (inactive)	–	47.5 µM (inactive)	> 29.6 µM (inactive)
CN1CC[C@]2(c3cccc(O)c3)CC(=O)/C(=C/c3ccccc3)[C@@H]1C2.[O-][Cl+3]([O-])([O-])O	2.44 µM (inactive)	2.25 µM (inactive)	2.44 µM (inactive)	6.97 µM (inactive)	6.92 µM (inactive)	2.59 µM (inactive)	1.94 µM (inactive)	2.73 µM (inactive)	2.19 µM (inactive)	2.34 µM (inactive)	1.72 µM (inactive)	2.74 µM (inactive)	1.97 µM (inactive)	1.76 µM (inactive)	1.95 µM (inactive)	3.06 µM (inactive)	2.99 µM (inactive)	5.4 µM (inactive)	2.41 µM (inactive)	–
C[N+](C)(C)c1ccc(C(N)C(=O)O)cc1 (configuration not stated)	> 100 µM (inactive)	> 100 µM (inactive)	> 100 µM (inactive)	> 100 µM (inactive)	> 100 µM (inactive)	> 100 µM (inactive)	> 100 µM (inactive)	> 100 µM (inactive)	> 100 µM (inactive)	> 100 µM (inactive)	> 100 µM (inactive)	> 100 µM (inactive)	> 100 µM (inactive)	> 100 µM (inactive)	–	> 100 µM (inactive)	> 100 µM (inactive)	> 100 µM (inactive)	> 100 µM (inactive)	> 100 µM (inactive)
CC1Oc2cc3c(-c4c(O)cc(O)c5c(O)c6c(cc45)OC(C)C(C)C6=O)c(O)cc(O)c3c(O)c2C(=O)C1C (configuration not stated)	0.102 µM (active)	0.183 µM (active)	0.0605 µM (active)	0.17 µM (active)	0.116 µM (active)	0.281 µM (active)	–	0.226 µM (active)	0.147 µM (active)	0.0925 µM (active)	0.24 µM (active)	0.343 µM (active)	0.255 µM (active)	0.0546 µM (active)	0.15 µM (active)	0.698 µM (active)	0.11 µM (active)	0.0832 µM (active)	0.054 µM (active)	0.372 µM (active)
NCCP(=O)(O)O	> 100 µM (inactive)	> 100 µM (inactive)	> 100 µM (inactive)	> 100 µM (inactive)	> 100 µM (inactive)	> 100 µM (inactive)	> 100 µM (inactive)	> 100 µM (inactive)	> 100 µM (inactive)	> 100 µM (inactive)	> 100 µM (inactive)	> 100 µM (inactive)	> 100 µM (inactive)	> 100 µM (inactive)	–	> 100 µM (inactive)	> 100 µM (inactive)	> 100 µM (inactive)	> 100 µM (inactive)	> 100 µM (inactive)
CC(=O)Oc1c(C)c2c(c3ncccc13)OC(C)C2 (configuration not stated)	12.8 µM (inactive)	11.8 µM (inactive)	21.1 µM (inactive)	19.4 µM (inactive)	17.1 µM (inactive)	12.8 µM (inactive)	–	15.2 µM (inactive)	13.3 µM (inactive)	11.5 µM (inactive)	6.14 µM (inactive)	4.29 µM (inactive)	32.4 µM (inactive)	26 µM (inactive)	15 µM (inactive)	13.9 µM (inactive)	16.2 µM (inactive)	34 µM (inactive)	3.63 µM (inactive)	12.2 µM (inactive)
CCOc1ccccc1/N=N/C1C(=O)N(C(=O)CC(=O)Nc2ccccc2Cl)N=C1C (configuration not stated)	> 100 µM (inactive)	> 100 µM (inactive)	78.7 µM (inactive)	> 100 µM (inactive)	3.86 µM (inactive)	> 100 µM (inactive)	43.7 µM (inactive)	> 100 µM (inactive)	> 100 µM (inactive)	97.9 µM (inactive)	> 100 µM (inactive)	> 100 µM (inactive)	55.3 µM (inactive)	94.4 µM (inactive)	> 100 µM (inactive)	> 100 µM (inactive)	> 100 µM (inactive)	–	78.7 µM (inactive)	56 µM (inactive)
COCc1nc2c(OC)c(-c3nc4ccc(N5CCN(C)CC5)nc4[nH]3)cc(OC)c2[nH]1	40.7 µM (inactive)	62.2 µM (inactive)	> 100 µM (inactive)	37.5 µM (inactive)	68.1 µM (inactive)	99.3 µM (inactive)	30.8 µM (inactive)	21.3 µM (inactive)	40.5 µM (inactive)	45.8 µM (inactive)	41.8 µM (inactive)	37.7 µM (inactive)	15.9 µM (inactive)	33.3 µM (inactive)	–	28 µM (inactive)	51.5 µM (inactive)	48 µM (inactive)	32.9 µM (inactive)	> 100 µM (inactive)
COc1ccc2c(c1)OCC1Cc3cc4c(cc3OC21)OCO4 (configuration not stated)	34.8 µM (inactive)	97.3 µM (inactive)	61 µM (inactive)	35.9 µM (inactive)	41.1 µM (inactive)	44.6 µM (inactive)	19.4 µM (inactive)	32.1 µM (inactive)	46.8 µM (inactive)	> 100 µM (inactive)	7.73 µM (inactive)	49.2 µM (inactive)	47.9 µM (inactive)	41.6 µM (inactive)	39.6 µM (inactive)	–	28.4 µM (inactive)	> 100 µM (inactive)	40.6 µM (inactive)	31.3 µM (inactive)
CC1CCc2sc3nc(S)n(-c4ccccc4)c(=O)c3c2C1 (configuration not stated)	62.7 µM (inactive)	62.5 µM (inactive)	> 100 µM (inactive)	> 100 µM (inactive)	> 100 µM (inactive)	21.6 µM (inactive)	47.2 µM (inactive)	> 100 µM (inactive)	39 µM (inactive)	53.8 µM (inactive)	> 100 µM (inactive)	> 100 µM (inactive)	39.6 µM (inactive)	33.3 µM (inactive)	–	93.1 µM (inactive)	> 100 µM (inactive)	45.5 µM (inactive)	33.4 µM (inactive)	31.3 µM (inactive)
